In patent publication US20220041681A1 (MEDIMMUNE LIMITED, priority 2016, published 2022):
Read-outs that look alike come from different tables or passages of the source.

Columns and labels:
[1] = system: overweight or obese subjects with type 2 diabetes mellitus (T2DM); assay: Phase 1/2 multiple-ascending dose study Part I (Cohorts 1-4)
Description: (§6) A Phase 1/2, randomized, double-blind, multiple-ascending dose study is performed in two parts (A and B).
Part A consists of 3 cohorts.
Part B consists of 1 cohort.
(§7) The initial dose is 100 μg. […] The study duration for each subject varies by cohort and consists of an inpatient multiple-ascending dose (MAD) or up-titration evaluation period (beginning on Day −2 and ending after Day 8 for Cohort 1, Day 12 for Cohort 2, Day 16 for Cohort 3, and Day 13 for Cohort 4) and an outpatient follow-up period.
(§8) The subject remains in the facility for observation and safety tests including ECGs, telemetry, monitoring of vital signs, and assessments of the injection site for potential reactions throughout the day and during the treatment period.
(§9) Mixed-meal test (MMT) procedures are performed on Day −1 and on the last day of the highest dose level achieved for all cohorts. […] For the MMT, the subject consumes a standardized meal (Ensure Plus %) within 5 minutes, and timed serial blood samples are obtained for measurement of glucose and parameters related to glucose metabolism just before and through 240 minutes after consumption of the standandized meal. During the inpatient period, finger prick glucose samples are collected 15 minutes prior to and 2 hours after breakfast, mid-day, and evening meals, and prior to going to bed.
(§10) Cohort 4 subjects are re-admitted for an overnight inpatient stay at the end of the at-home self-administration period to collect the final endpoints.
(§11) Subjects are discharged from the unit the day after the final dose is administered in the study.
(§12) Missing measurements at the end of treatment are replaced with the last available measurement. The comparison is conducted at a two-sided significance level of 0.1.

[2] = system: diet induced obesity (DIO) mouse model; assay: Diet induced obesity (DIO) mouse model, study B; type: in vivo; settings: for FGF 21 / HOMA / Hepatic TG / Plasma Cholesterol / Plasma NEFA / Plasma TG: day 14; for Glucose / Insulin: day 14, 4-hour fasting
Description: The body weight of the animals was monitored daily throughout the dosing period. At day 14, blood samples for the measurement of plasma glucose and insulin from conscious mice were obtained after a 4-hour fasting period. Mice were then anaesthetized using isoflourane and terminal blood was collected from the capillary bed behind the eye. The following parameters were measured: blood chemistry measurements of triglycerides, total cholesterol, non-esterified fatty acids (NEFA), beta-hydroxybutyrate and fibroblast growth factor 21 (FGF21) (Table 16 and Table 17 below).

[3] = type: in vitro ADME, human; settings: human, 24 h, 2 μmol/L
Description: (§1) Stability testing of peptides in plasma.
(§2) Stock solutions of the peptides of about 200 μmol/L was prepared by weighing solid peptide into a Eppendorf Low Bind Tube and dissolved in DMSO. 10 μL of stock solutions were added to 990 μL of plasma in an Eppendorf Low Bind Tube, resulting in initial concentrations of the peptides in plasma of about 2 μmol/L. The frozen blank plasma from human, rat and mouse had been thawed and heated to a temperature of 37° C. before addition of the stock solution. The spiked plasma samples were gently mixed and allowed to equilibrate for about 5 minutes before start of experiment. The plasma samples were incubated for 48 hours in a GalaxyR CO2 incubator at 37° C. Sampling (30 μL) was performed at 0, 1, 2, 6.5, 17, 24 and 48 hours. The samples were stored at −70° C. until analysis.
(§3) Plasma samples were assayed as follows. The 30 μL plasma samples were protein precipitated with […] of cold ethanol in a 96-well low bind plate (Eppendorf Protein LoBind). After mixing and centrifugation, 100 μl the supernatant was transferred to a new plate and 1 μl was injected onto an analytical column.
(§4) The analysis was performed using a μLC-system (LC Exigent μLC) coupled to a medium high resolution mass spectrometer (Perkin Elmer PenTOF) with positive electrospray ionisation. The analytical column was a 5 cm, 1 mm Agilent Poroshell (custom made) C18-column with a particle size of 2.7 μm. Flow: 0.1 ml/min using a slow reversed phase gradient. Mobile phases used were acetonitrile and water containing 0.1% formic acid.
(§5) The resulting data were manually evaluated for the following degradation products: +1 product (acid) and the DPP IV-cleavage product. Products with +1 mass may arise from deamidation at amide groups of glutamine or at the C-terminus. Cleavage products arise from the action of the protease DPP IV in plasma. Both the degradation of the peptides and formation of peptide products were reported in percentage of the initial peptide concentration. Peaks were integrated and % remaining peptide was calculated: (peak area/peak area 0H)*100. Levels of deamidation and DPP IV cleavage were low for G797 and G933.

[4] = system: overweight or obese subjects with type 2 diabetes mellitus (T2DM); settings: human, in vivo
Description: as §6
Part A consists of 3 cohorts.
Part B consists of 1 cohort.
as §7, §8, §9, §10, §11, §12

[5] = biological target: human serum albumin (Homo sapiens, UniProt P02768); assay: Fraction of free peptide calculated from variation in cAMP generation with HSA concentration; settings: human
Description: Data was transformed to % Delta F as described in manufacturer's guidelines and analysed by 4-parameter logistic fit to determine EC50 values. […] To compare the balance of activities at the GLP1R and GlucR between different peptides and across different conditions, these can be correlated using the calculation below, where the EC50's are related to those of the natural ligands.

[6] = Stability testing of peptides in plasma; type: in vitro ADME, mouse; settings: mouse, 24 h, 2 μmol/L
Description: as §1, §2, §3, §4
as §5, with “Levels of deamidation and DPP IV cleavage were low for G797 and G933.” left out

[7] = Cohort 4, 200 ug, n = 25 active

human serum albumin, sequence (P02768 25-609): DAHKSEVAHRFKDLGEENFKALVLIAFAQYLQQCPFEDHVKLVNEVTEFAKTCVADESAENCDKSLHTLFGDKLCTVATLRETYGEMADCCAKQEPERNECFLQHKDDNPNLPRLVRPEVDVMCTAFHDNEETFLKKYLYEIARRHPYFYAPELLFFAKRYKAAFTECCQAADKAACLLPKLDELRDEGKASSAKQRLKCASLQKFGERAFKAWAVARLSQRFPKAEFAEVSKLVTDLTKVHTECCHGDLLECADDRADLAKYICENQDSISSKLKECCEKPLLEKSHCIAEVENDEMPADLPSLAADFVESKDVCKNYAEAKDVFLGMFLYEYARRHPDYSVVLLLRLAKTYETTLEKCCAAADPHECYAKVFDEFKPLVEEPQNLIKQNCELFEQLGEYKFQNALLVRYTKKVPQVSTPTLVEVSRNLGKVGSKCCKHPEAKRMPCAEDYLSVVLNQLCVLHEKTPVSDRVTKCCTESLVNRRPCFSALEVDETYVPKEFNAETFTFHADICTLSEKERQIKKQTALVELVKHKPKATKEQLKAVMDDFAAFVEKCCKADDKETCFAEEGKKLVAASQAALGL

CCCCCCCCCCCCCCCC(=O)N[C@@H](CCC(=O)NCCCC[C@H](NC(=O)[C@H](CC(=O)O)NC(=O)[C@H](CO)NC(=O)C(NC(=O)[C@H](Cc1ccccc1)NC(=O)C(NC(=O)CNC(=O)[C@H](CCC(N)=O)NC(=O)[C@H](CO)NC(=O)[C@@H](N)Cc1cnc[nH]1)[C@@H](C)O)[C@@H](C)O)C(=O)N[C@@H](CO)C(=O)N[C@@H](CCC(=O)O)C(=O)N[C@@H](Cc1ccc(O)cc1)C(=O)N[C@@H](CC(C)C)C(=O)N[C@@H](CC(=O)O)C(=O)N[C@@H](CO)C(=O)N[C@@H](CCC(=O)O)C(=O)N[C@@H](CCCNC(=N)N)C(=O)N[C@@H](C)C(=O)N[C@@H](CCCNC(=N)N)C(=O)N[C@@H](CC(=O)O)C(=O)N[C@@H](Cc1ccccc1)C(=O)N[C@H](C(=O)N[C@@H](C)C(=O)N[C@@H](Cc1c[nH]c2ccccc12)C(=O)N[C@@H](CC(C)C)C(=O)N[C@@H](CCC(=O)O)C(=O)N[C@@H](C)C(=O)NCC(=O)NCC(=O)O)C(C)C)C(=O)O (stereo partly drawn) [Peptide G933]
Fasting Glucose (change) ([1]; Cohort 1, 100 ug, n = 6 active): -28.00 mg/dL | Glucose AUG (change) ([1]; Cohort 1, 100 ug, n = 6 active): −27.3 | Weight (change) ([1]; Cohort 1, 100 ug, n = 6 active): -1.1 kg | Fasting Glucose (change) ([1]; Cohort 2, 150 ug, n = 6 active): -17.90 mg/dL | Glucose AUG (change) ([1]; Cohort 2, 150 ug, n = 6 active): −8.9 | Weight (change) ([1]; Cohort 2, 150 ug, n = 6 active): -0.5 kg | weight differential ([1]; Cohort 3): more than 2 kg | Fasting Glucose (change) ([1]; Cohort 3, 200 ug, n = 6 active): -43.20 mg/dL | Glucose AUG (change) ([1]; Cohort 3, 200 ug, n = 6 active): −31.6 | Weight (change) ([1]; Cohort 3, 200 ug, n = 6 active): -2.4 kg | reduction in liver volume compared to placebo ([1]; Cohort 4): 0.14 L | Death (grade 5 severity) ([1]; Cohort 4, 200 μg, N = 25): 0 | Subject with at least one G933-related serious event ([1]; Cohort 4, 200 μg, N = 25): 0 | Subject with at least one event ([1]; Cohort 4, 200 μg, N = 25): 22 (88.8%) | Subject with at least one event leading to discontinuation of G933 ([1]; Cohort 4, 200 μg, N = 25): 3 (12.0%) | Subject with at least one event of ≥ grade 3 severity ([1]; Cohort 4, 200 μg, N = 25): 0 | Subject with at least one serious event ([1]; Cohort 4, 200 μg, N = 25): 0 | Fasting Glucose (change) [1, 7]: -31.62 mg/dL | Glucose AUG (change) [1, 7]: −22.5 | patients who vomited ([1]; Cohort 4, 8 patients): 32.0% | patients reporting nausea ([1]; Cohort 4, 13 patients): 52.0% | patients who lost at least 2% of their weight ([1]; Cohort 4, 41 days): 84% | patients who lost at least 5 kg ([1]; Cohort 4, 41 days): 44% | percent weight loss difference between G933 and placebo ([1]; Cohort 4, 41 days): 2.47% | weight loss difference between G933 and placebo ([1]; Cohort 4, 41 days): 2.12 kg | increase in heart rate ([1]; Cohort 4, Day 41): 6.9 bpm | percent of weight lost ([1]; Cohort 4, after 41 days): about 4.18% | weight lost ([1]; Cohort 4, after 41 days): about 3.83 kg | HbA1c reduction ([1]; Cohort 4, after 41 days of treatment): 0.92% | mean HbA1c on day 42 ([1]; Cohort 4, baseline mean […]): 6.3% | mean reduction in glucose AUC from baseline (day 1) to day 41 ([1]; Cohort 4, up to 200 μg): 38.5% | patients with vomiting ([1]; Cohorts 1-3 (n=5)): 26% | weight loss ([1]; Cohorts 1-3, dose dependent trend): up to 2 kg | mixed-meal test glucose AUC reduction ([1]; across Cohorts 1-3 (100-200 μg QD)): > 40% | increase in pulse rate ([1]; each of Cohorts 1-3): about 10 bpm | Between-subject variability in Cmax ([1]; larger Cohort 4): 40-50% | anti-G933 antibody ([1]; post baseline, Cohorts 1-3): Only one sample was confirmed positive | Between-subject variability in Cmax ([1]; smaller cohorts, Parts I and II): 20-30% | BW day 14 (% change of vehicle mean) ([2]; 5 nmol/kg sc twice daily for 14 days): −11% | FGF 21 ([2]; 5 nmol/kg sc twice daily): 2682 pg/mL | HOMA ([2]; 5 nmol/kg sc twice daily): 3.31 | Hepatic TG ([2]; 5 nmol/kg sc twice daily): 19.3 g TG/100 g tissue | Plasma Cholesterol ([2]; 5 nmol/kg sc twice daily): 2.88 mM | Plasma NEFA ([2]; 5 nmol/kg sc twice daily): 0.28 mM | Plasma TG ([2]; 5 nmol/kg sc twice daily): 0.89 mM | Glucose ([2]; 5 nmol/kg sc twice daily): 6.2 mM | Insulin ([2]; 5 nmol/kg sc twice daily): 0.53 nM | BW day 14 (% change of vehicle mean) ([2]; 10 nmol/kg sc twice daily for 14 days): −19% | FGF 21 ([2]; 10 nmol/kg sc twice daily): 4459 pg/mL | HOMA ([2]; 10 nmol/kg sc twice daily): 1.98 | Hepatic TG ([2]; 10 nmol/kg sc twice daily): 14.7 g TG/100 g tissue | Plasma Cholesterol ([2]; 10 nmol/kg sc twice daily): 2.32 mM | Plasma NEFA ([2]; 10 nmol/kg sc twice daily): 0.27 mM | Plasma TG ([2]; 10 nmol/kg sc twice daily): 0.16 mM | Glucose ([2]; 10 nmol/kg sc twice daily): 7.2 mM | Insulin ([2]; 10 nmol/kg sc twice daily): 0.27 nM | body weight over the 14 day dosing period ([2]; study B, in words): dose dependent and continuous weight loss | % DPP cleaved product/+1 DPP cleaved product [3]: <1% | % stable peptide [3]: 86% | Levels of deamidation and DPP IV cleavage ([3]; rat, mouse): low | half-life [4]: 8 to 11 h | free peptide at 4.4% HSA [5]: 0.29% | % stable peptide [6]: 83%
